Data as given in PMC9297786 (Molecular Oncology, 2022).

molecular target: T1, ephrin type‐B receptor 4 (EPHB4) (Homo sapiens, UniProt P54760); test: Kinase‐Glo Plus luminescence kinase assay; SPR binding also measured; type: biochemical; conditions: not given
T1 construct: EPHB4 kinase (Carna Biosciences)
T1 sequence (P54760 16-987): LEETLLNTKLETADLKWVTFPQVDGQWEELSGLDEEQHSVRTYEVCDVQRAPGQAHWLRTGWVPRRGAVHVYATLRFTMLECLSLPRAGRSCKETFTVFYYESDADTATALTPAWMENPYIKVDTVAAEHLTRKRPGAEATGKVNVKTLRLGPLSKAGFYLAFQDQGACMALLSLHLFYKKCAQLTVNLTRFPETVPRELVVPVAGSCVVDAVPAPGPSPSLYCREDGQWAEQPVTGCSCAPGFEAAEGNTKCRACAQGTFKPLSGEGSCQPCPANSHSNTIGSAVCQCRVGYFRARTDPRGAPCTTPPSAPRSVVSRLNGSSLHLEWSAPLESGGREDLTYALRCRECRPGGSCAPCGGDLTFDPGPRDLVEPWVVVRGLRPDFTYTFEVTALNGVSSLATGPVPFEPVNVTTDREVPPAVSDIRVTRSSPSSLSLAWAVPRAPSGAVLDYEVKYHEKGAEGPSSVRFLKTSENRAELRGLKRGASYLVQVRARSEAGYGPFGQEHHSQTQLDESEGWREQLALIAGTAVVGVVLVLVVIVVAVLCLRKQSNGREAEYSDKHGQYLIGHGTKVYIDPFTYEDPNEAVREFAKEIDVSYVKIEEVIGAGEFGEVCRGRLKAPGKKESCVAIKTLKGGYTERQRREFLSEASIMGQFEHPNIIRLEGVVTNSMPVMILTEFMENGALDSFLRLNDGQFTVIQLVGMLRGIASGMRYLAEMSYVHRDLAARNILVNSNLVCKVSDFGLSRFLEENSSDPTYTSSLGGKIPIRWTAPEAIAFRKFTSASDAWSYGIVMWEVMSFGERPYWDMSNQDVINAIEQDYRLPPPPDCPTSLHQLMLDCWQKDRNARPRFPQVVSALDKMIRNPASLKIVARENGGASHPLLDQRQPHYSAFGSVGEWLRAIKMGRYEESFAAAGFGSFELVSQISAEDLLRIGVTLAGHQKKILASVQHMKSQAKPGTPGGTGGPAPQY
Excerpt: Kinase‐Glo Plus luminescence kinase assay; SPR binding also measured on ephrin type‐B receptor 4 (EPHB4) | […]

Row | SMILES | IC50 [nM]
1 | Cc1ccc(C(=O)Nc2cccc(C(F)(F)F)c2)cc1Nc1nc(-c2cccnc2)nc2c1cnn2C [NVP‐BHG712] | 349

system: K562; test: cells; set-up: MTT cell growth inhibition assay, absorbance at 490 nm; conditions: Homo sapiens, K562, 48 h, read-out: Inhibition rate (%, 10 μM)
Method: Exponential‐phase cells were seeded into 96‐well plates at a density of 2 × 10^4 cells per well in complete medium. After 24 h, cells were treated with drugs at indicated concentrations and incubated for 48 h. Fresh medium containing 20 μL MTT solution (5 mg·mL^−1) was then added to each well. Then plates were incubated for another 4 h at 37 °C. After removing the medium, 150 μL DMSO was added to each well. The absorbance was recorded at 490 nm in the microplate reader and the inhibition ratio (I%) was calculated. The cell growth assay was conducted as described previously. K562 cells were cultured in IMDM containing 10% fetal bovine serum, 100 U·mL^−1 penicillin and 100 U·mL^−1 streptomycin. […] MEG‐01 cells were cultured in DMEM containing 10% fetal bovine serum, 100 U·mL^−1 penicillin and 100 U·mL^−1 streptomycin. […] Cells were grown at 37 °C in a humidified atmosphere with 5% CO2. […] To identify an EPHB4‐specific inhibitor with a potential of rapid translation into clinic, a pool of clinically approved TKIs and compounds was screened in this study (Fig. S2 and Table S4).

Row | SMILES | inhibition at 10 µM [%]
2 | O=C(/C=C/c1ccc(O)c2oc(-c3ccc(O)c(O)c3)cc12)O[C@H](Cc1ccc(O)c(O)c1)C(=O)O [salvianolic acid C] | -2.73
3 | CC(C)(C)NC(=O)[C@@H]1C[C@@H]2CCCC[C@@H]2CN1C[C@@H](O)[C@H](Cc1ccccc1)NC(=O)[C@H](CC(N)=O)NC(=O)c1ccc2ccccc2n1 [saquinavir] | -30.4
4 | CNC(=O)c1cc(Oc2ccc(NC(=O)Nc3ccc(Cl)c(C(F)(F)F)c3)cc2)ccn1 [sorafenib] | 73.4
5 | CC(C)NCC(O)c1ccc(NS(C)(=O)=O)cc1 (stereo not shown) [sotalol] | -52.8
6 | CCN(CC)CCNC(=O)c1c(C)[nH]c(/C=C2\C(=O)Nc3ccc(F)cc32)c1C [sunitinib] | 73.5
7 | O=C1Nc2ccc(Cl)cc2[C@@](C#CC2CC2)(C(F)(F)F)O1 [sustiva] | -40.1
8 | CCOc1ccccc1OCCN[C@H](C)Cc1ccc(OC)c(S(N)(=O)=O)c1 [tamsulosin] | -35.2
9 | CCCc1nc2c(C)cc(-c3nc4ccccc4n3C)cc2n1Cc1ccc(-c2ccccc2C(=O)O)cc1 [telmisartan] | -8.14
10 | COc1cc2nc(N3CCN(C(=O)C4CCCO4)CC3)nc(N)c2cc1OC (stereo not shown) [terazosin] | -57
11 | CC(C)(C)NCC(O)c1cc(O)cc(O)c1 (stereo not shown) [terbutaline] | -58.2
12 | COc1cc2c(cc1OC)[C@@H]1Cc3ccc(OC)c(OC)c3CN1CC2 [tetrahydropalmatine] | -83.4
13 | CC(C)[C@H](N)C(=O)OCCOCn1cnc2c(=O)nc(N)[nH]c21 [valaciclovir] | -63.9
14 | CCCCC(=O)N(Cc1ccc(-c2ccccc2-c2nnn[nH]2)cc1)[C@H](C(=O)O)C(C)C [valsartan] | -32.4
15 | COc1cc2c(Nc3ccc(Br)cc3F)ncnc2cc1OCC1CCN(C)CC1 [vandetanib, N‐(4‐bromo‐2‐fluorophenyl)‐6‐methoxy‐7‐[(1‐methylpiperidin‐4‐yl)methoxy]quinazolin‐4‐amine] | 99.7
16 | COc1cc(C=O)ccc1O [vanillin] | -86.2
17 | COc1ccc(CCN(C)CCCC(C#N)(c2ccc(OC)c(OC)c2)C(C)C)cc1OC (stereo not shown) [verapamil] | 66
18 | COc1c2occc2cc2ccc(=O)oc12 [xanthotoxin] | -42.2
19 | Cc1cn([C@H]2C[C@H](N=[N+]=[N-])[C@@H](CO)O2)c(=O)[nH]c1=O [zidovudine] | 10.3

same assay, conditions: Homo sapiens, K562, 48 h; read-out: Inhibition rate (%, 10 μM)

Row | SMILES | inhibition at 10 µM [%]
20 | COC1=C[C@@H]2[C@@H]3Cc4ccc(OC)c(O)c4[C@]2(CCN3C)CC1=O [sinomenine] | -4.7
21 | COC1=CC=C2[C@H]3Cc4ccc(OC)c5c4[C@@]2(CCN3C)[C@H]1O5 [thebaine] | -58.3

system: K562; test: cells; set-up: MTT cell viability of wild-type K562 beside EPHB4 mutant sublines, 48 h; conditions: Homo sapiens, K562, 48 h; read-out: IC50 (uM) K562-WT
Method: Exponential‐phase cells were seeded into 96‐well plates at a density of 2 × 10^4 cells per well in complete medium. After 24 h, cells were treated with drugs at indicated concentrations and incubated for 48 h. Fresh medium containing 20 μL MTT solution (5 mg·mL^−1) was then added to each well. Then plates were incubated for another 4 h at 37 °C. After removing the medium, 150 μL DMSO was added to each well. The absorbance was recorded at 490 nm in the microplate reader and the inhibition ratio (I%) was calculated. The cell growth assay was conducted as described previously. […] Similar results were shown for M4 mutants. […] (a) Three‐dimensional structure graph; (b) binding region; (c) plane schematic of interaction between the receptor and ligand. (B) Genomic position of sgRNAs and PAMs for EPHB4 knock‐out line, PAM site was colored in red. (C) The protein expression of EPHB4 in K562, K562‐Crispr‐1 and K562‐Crispr‐2 cells determined by western blot assay. P‐values were generated by one‐way ANOVA using the Tukey test for multiple comparisons. **P < 0.01 versus the K562 group. […] P‐values were generated by one‐way ANOVA using the Tukey test for multiple comparisons. *P < 0.05 versus the K562 group. (E) Five point‐mutation (M1–M5) and their corresponding wild‐type (WT) sequences. The point‐mutations of EPHB4: M1, I14A, G15A; M2, M83A, N85A, G86A; M3, A87Del; M4, S90A, F91A; M5, R93A, L94A. […]

Row | SMILES | IC50 [µM]
22 | COc1cc2c(Nc3ccc(Br)cc3F)ncnc2cc1OCC1CCN(C)CC1 [vandetanib, N‐(4‐bromo‐2‐fluorophenyl)‐6‐methoxy‐7‐[(1‐methylpiperidin‐4‐yl)methoxy]quinazolin‐4‐amine] | 2.05 ± 1.08

system: H9 cells; test: cells; set-up: MTT cell growth inhibition after 48 h; conditions: Homo sapiens, H9, 48 h
Method: (§1) Exponential‐phase cells were seeded into 96‐well plates at a density of 2 × 10^4 cells per well in complete medium. After 24 h, cells were treated with drugs at indicated concentrations and incubated for 48 h. Fresh medium containing 20 μL MTT solution (5 mg·mL^−1) was then added to each well. Then plates were incubated for another 4 h at 37 °C. After removing the medium, 150 μL DMSO was added to each well. The absorbance was recorded at 490 nm in the microplate reader and the inhibition ratio (I%) was calculated. The cell growth assay was conducted as described previously. […] To identify an EPHB4‐specific inhibitor with a potential of rapid translation into clinic, a pool of clinically approved TKIs and compounds was screened in this study (Fig. S2 and Table S4).

Row | SMILES | IC50 [nM]
23 | COc1cc2c(Nc3ccc(Br)cc3F)ncnc2cc1OCC1CCN(C)CC1 [vandetanib, N‐(4‐bromo‐2‐fluorophenyl)‐6‐methoxy‐7‐[(1‐methylpiperidin‐4‐yl)methoxy]quinazolin‐4‐amine] | 11200 ± 1080

system: K562; test: cells; set-up: MTT cell growth inhibition after 48 h; conditions: Homo sapiens, K562, 48 h
Method: as §1

Row | SMILES | IC50 [nM]
24 | COc1cc2c(Nc3ccc(Br)cc3F)ncnc2cc1OCC1CCN(C)CC1 [vandetanib, N‐(4‐bromo‐2‐fluorophenyl)‐6‐methoxy‐7‐[(1‐methylpiperidin‐4‐yl)methoxy]quinazolin‐4‐amine] | 2180 ± 1070

system: MEG-01 cells; test: cells; set-up: MTT cell growth inhibition after 48 h; conditions: Homo sapiens, MEG-01, 48 h
Method: as §1

Row | SMILES | IC50 [nM]
25 | COc1cc2c(Nc3ccc(Br)cc3F)ncnc2cc1OCC1CCN(C)CC1 [vandetanib, N‐(4‐bromo‐2‐fluorophenyl)‐6‐methoxy‐7‐[(1‐methylpiperidin‐4‐yl)methoxy]quinazolin‐4‐amine] | 1460 ± 1070
